Active and inactive are the calls of the source. No cut-off for these calls is given here.
Tests used:
MDA-MB-231 = assay: Cytotoxicity against human MDA-MB-231 cells assessed as inhibition of cell growth incubated for 72 hrs by MTT assay; format: functional, cell-based; details: MDA-MB-231, 72 h
[1] = Acute toxicity in C57BL/6J mouse assessed as secretion in eye corner at 5000 mg/kg measured after 14 days; format: organism-based; details: in vivo, 336 h, time 14 day
RAW264.7 [2] = assay: Induction of apoptosis in mouse RAW264.7 cells assessed as necrotic cells at 0.5 uM after 48 hrs by Annexin V-FITC/PI based flow cytometric analysis (RVB=0.26%); format: functional
[3] = Acute toxicity in C57BL/6J mouse assessed as safety concern at 1000 to 5000 mg/kg measured after 14 days; format: organism-based; details: in vivo, 336 h, dose 1000-5000 mg/kg, time 14 day
RAW264.7 [4] = assay: Induction of apoptosis in mouse RAW264.7 cells assessed as viable cells at 0.25 uM after 48 hrs by Annexin V-FITC/PI based flow cytometric analysis (RVB=94.1%); format: functional; details: read-out: Activity
RAW264.7 [5] = assay: Induction of cell cycle arrest in mouse RAW264.7 cells assessed as accumulation of cells in G1 phase at 0.25 uM incubated for 24 hrs by PI/RNase staining based flow cytometric analysis (RVB = 55.06%); format: functional
RAW264.7 [6] = assay: Induction of apoptosis in mouse RAW264.7 cells assessed as necrotic cells at 0.25 uM after 48 hrs by Annexin V-FITC/PI based flow cytometric analysis (RVB=0.26%); format: functional
RAW264.7 [7] = assay: Induction of apoptosis in mouse RAW264.7 cells assessed as necrotic cells at 1 uM after 48 hrs by Annexin V-FITC/PI based flow cytometric analysis (RVB=0.26%); format: functional
NCI-H1581 = assay: Cytotoxicity against human NCI-H1581 cells assessed as inhibition of cell growth incubated for 72 hrs by MTT assay; format: functional, cell-based; details: NCI-H1581, 72 h
RAW264.7 [8] = assay: Induction of cell cycle arrest in mouse RAW264.7 cells assessed as accumulation of cells in S phase at 0.5 uM incubated for 24 hrs by PI/RNase staining based flow cytometric analysis (RVB = 34.03%); format: functional
RAW264.7 [9] = assay: Induction of apoptosis in mouse RAW264.7 cells assessed as viable cells at 0.1 uM after 48 hrs by Annexin V-FITC/PI based flow cytometric analysis (RVB=94.1%); format: functional; details: read-out: Activity
RAW264.7 [10] = assay: Induction of apoptosis in mouse RAW264.7 cells assessed as late apoptotic cells at 0.25 uM after 48 hrs by Annexin V-FITC/PI based flow cytometric analysis (RVB=0.098%); format: functional
Hep 3B2 = assay: Cytotoxicity against human Hep3B cells assessed as inhibition of cell growth incubated for 72 hrs by MTT assay; format: functional, cell-based
RAW264.7 [11] = assay: Induction of apoptosis in mouse RAW264.7 cells assessed as late apoptotic cells at 1 uM after 48 hrs by Annexin V-FITC/PI based flow cytometric analysis (RVB=0.098%); format: functional
RAW264.7 [12] = assay: Induction of apoptosis in mouse RAW264.7 cells assessed as early apoptotic cells at 0.25 uM after 48 hrs by Annexin V-FITC/PI based flow cytometric analysis (RVB=5.57%); format: functional
RAW264.7 [13] = assay: Inhibition of colony formation in mouse RAW264.7 cells assessed as reduction in colony single area at 0.1 to 1 uM incubated for 72 hrs by crystal violet staining method; format: functional, cell-based; details: dose 0.1-1 µM
RAW264.7 [14] = assay: Induction of cell cycle arrest in mouse RAW264.7 cells assessed as accumulation of cells in S phase at 0.25 uM incubated for 24 hrs by PI/RNase staining based flow cytometric analysis (RVB = 34.03%); format: functional
RAW264.7 [15] = assay: Induction of apoptosis in mouse RAW264.7 cells assessed as early apoptotic cells at 0.5 uM after 48 hrs by Annexin V-FITC/PI based flow cytometric analysis (RVB=5.57%); format: functional
[16] = Acute toxicity in C57BL/6J mouse assessed as mortality at 1000 to 5000 mg/kg measured after 14 days; format: organism-based; details: in vivo, 336 h, dose 1000-5000 mg/kg, time 14 day
RAW264.7 [17] = assay: Induction of cell cycle arrest in mouse RAW264.7 cells assessed as accumulation of cells in G1 phase at 0.5 uM incubated for 24 hrs by PI/RNase staining based flow cytometric analysis (RVB = 55.06%); format: functional
RAW264.7 [18] = assay: Induction of cell cycle arrest in mouse RAW264.7 cells assessed as accumulation of cells in G1 phase at 0.1 uM incubated for 24 hrs by PI/RNase staining based flow cytometric analysis (RVB = 55.06%); format: functional
RAW264.7 [19] = assay: Induction of apoptosis in mouse RAW264.7 cells assessed as necrotic cells at 0.1 uM after 48 hrs by Annexin V-FITC/PI based flow cytometric analysis (RVB=0.26%); format: functional
RAW264.7 [20] = assay: Induction of apoptosis in mouse RAW264.7 cells assessed as viable cells at 1 uM after 48 hrs by Annexin V-FITC/PI based flow cytometric analysis (RVB=94.1%); format: functional; details: read-out: Activity
NCI-H2228 = assay: Cytotoxicity against human H2228 cells assessed as inhibition of cell growth incubated for 72 hrs by MTT assay; format: functional, cell-based; details: NCI-H2228, 72 h
Autotaxin = Autotaxin (Homo sapiens, UniProt Q13822); assay: Negative allosteric modulation activity against human ATX using FS-3 as substrate preincubated for 45 mins followed by substrate addition and measured every 30 mins by multi-mode microplate reader
RAW264.7 [21] = assay: Inhibition of colony formation in mouse RAW264.7 cells incubated for 72 hrs by crystal violet staining method; format: functional, cell-based; details: dose 0.1-1 µM, DDE = dose-dependent effect
RAW264.7 [22] = assay: Induction of cell cycle arrest in mouse RAW264.7 cells assessed as accumulation of cells in G2 phase at 0.5 uM incubated for 24 hrs by PI/RNase staining based flow cytometric analysis (RVB = 10.90%); format: functional
RAW264.7 [23] = assay: Induction of apoptosis in mouse RAW264.7 cells assessed as viable cells at 0.5 uM after 48 hrs by Annexin V-FITC/PI based flow cytometric analysis (RVB=94.1%); format: functional; details: read-out: Activity
RAW264.7 [24] = assay: Induction of apoptosis in mouse RAW264.7 cells assessed as late apoptotic cells at 0.1 uM after 48 hrs by Annexin V-FITC/PI based flow cytometric analysis (RVB=0.098%); format: functional
RAW264.7 [25] = assay: Inhibition of colony formation in mouse RAW264.7 cells assessed as reduction in colony count at 0.1 to 1 uM incubated for 72 hrs by crystal violet staining method; format: functional, cell-based; details: dose 0.1-1 µM
RAW264.7 [26] = assay: Induction of apoptosis in mouse RAW264.7 cells assessed as apoptotic cells measured after 48 hrs by acridine orange/ethidium bromide staining based fluorescence microscopy; format: functional, cell-based; details: dose 0.1-1 µM, DDE = dose-dependent effect
RAW264.7 [27] = assay: Induction of cell cycle arrest in mouse RAW264.7 cells assessed as accumulation of cells in G2 phase at 0.25 uM incubated for 24 hrs by PI/RNase staining based flow cytometric analysis (RVB = 10.90%); format: functional
RAW264.7 [28] = assay: Induction of cell cycle arrest in mouse RAW264.7 cells assessed as accumulation of cells in S phase at 1 uM incubated for 24 hrs by PI/RNase staining based flow cytometric analysis (RVB = 34.03%); format: functional
RAW264.7 [29] = assay: Induction of cell cycle arrest in mouse RAW264.7 cells assessed as accumulation of cells in S phase at 0.1 uM incubated for 24 hrs by PI/RNase staining based flow cytometric analysis (RVB = 34.03%); format: functional

CCc1nc2c(C)cc(-c3ccc(CN4CCN(CCO)CC4)cc3)cn2c1NC(=O)OCc1cc(Cl)cc(Cl)c1
IC50 (MDA-MB-231): 3.29 µM
Activity [1]: Toxic
Activity (RAW264.7 [2]): 1.03%
Activity [3]: Non-Toxic
viability at 0.25 µM (RAW264.7 [4]): 92%
Activity (RAW264.7 [5]): 10.61%
Activity (RAW264.7 [6]): 0.28%
Activity (RAW264.7 [7]): 0.83%
IC50 (NCI-H1581): 4.76 µM
Activity (RAW264.7 [8]): 4.78%
viability at 0.1 µM (RAW264.7 [9]): 92.8%
Activity (RAW264.7 [10]): 1.73%
IC50 (Hep 3B2): 0.58 µM
Activity (RAW264.7 [11]): 0.74%
Activity (RAW264.7 [12]): 6%
inhibition (RAW264.7 [13]): Active
Activity (RAW264.7 [14]): 18.57%
Activity (RAW264.7 [15]): 7.65%
Activity [16]: Non-Toxic
Activity (RAW264.7 [17]): 21.13%
Activity (RAW264.7 [18]): 14.72%
Activity (RAW264.7 [19]): 0.68%
viability at 1 µM (RAW264.7 [20]): 90%
IC50 (NCI-H2228): 4.27 µM
IC50 (Autotaxin): 0.0034 µM
inhibition (RAW264.7 [21]): Dde
Activity (RAW264.7 [22]): 74.09%
viability at 0.5 µM (RAW264.7 [23]): 90.4%
Activity (RAW264.7 [24]): 0.44%
inhibition (RAW264.7 [25]): Active
Activity (RAW264.7 [26]): Dde
Activity (RAW264.7 [27]): 70.82%
Activity (RAW264.7 [28]): 2.63%
Activity (RAW264.7 [29]): 25.72%
